Results: PubChem BioAssay (NCI)
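At the GI50, growth is halved. At the TGI there is no net growth.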

Tests used:
Test in all cases: NCI anticancer screen, dose series, 384-well format; in the data active = GI50 below about 0.43 µM; inactive = the rest
[1] = system: 786-0 renal
[2] = system: A498 renal
[3] = system: A549 NSCLC
[4] = system: ACHN renal
[5] = system: BT-549 breast
[6] = system: CAKI-1 renal
[7] = system: CCRF-CEM leukemia
[8] = system: COLO 205 colon
[9] = system: DU-145 prostate
[10] = system: EKVX NSCLC
[11] = system: HCC-2998 colon
[12] = system: HCT-116 colon
[13] = system: HCT-15 colon
[14] = system: HL-60(TB) leukemia
[15] = system: HOP-62 NSCLC
[16] = system: HOP-92 NSCLC
[17] = system: HS 578T breast
[18] = system: HT29 colon
[19] = system: IGROV1 ovarian
[20] = system: K-562 leukemia
[21] = system: KM12 colon
[22] = system: LOX IMVI melanoma
[23] = system: M14 melanoma
[24] = system: MALME-3M melanoma
[25] = system: MCF7 breast
[26] = system: MDA-MB-231 breast
[27] = system: MDA-MB-435 melanoma
[28] = system: MDA-MB-468 breast
[29] = system: MOLT-4 leukemia
[30] = system: NCI-H226 lung
[31] = system: NCI-H23 lung
[32] = system: NCI-H322M lung
[33] = system: NCI-H460 NSCLC
[34] = system: NCI-H522 lung
[35] = system: NCI/ADR-RES ovarian
[36] = system: OVCAR-3 ovarian
[37] = system: OVCAR-4 ovarian
[38] = system: OVCAR-8 ovarian
[39] = system: PC-3 prostate
[40] = system: RPMI-8226 leukemia
[41] = system: RXF 393 renal
[42] = system: SF-268 CNS
[43] = system: SF-295 CNS
[44] = system: SF-539 CNS
[45] = system: SK-MEL-28 melanoma
[46] = system: SK-MEL-5 melanoma
[47] = system: SK-OV-3 ovarian
[48] = system: SN12C renal
[49] = system: SNB-19 CNS
[50] = system: SNB-75 CNS
[51] = system: SR leukemia
[52] = system: SW-620 colon
[53] = system: T-47D breast
[54] = system: TK-10 renal
[55] = system: U251 glioblastoma
[56] = system: UACC-257 melanoma
[57] = system: UACC-62 melanoma
[58] = system: UO-31 renal
[59] = system: SK-MEL-2 melanoma

C[C@@H](Nc1cc(F)cc(F)c1)c1cc(C(=O)N(C)C)cc2c(=O)cc(N3CCOCC3)oc12
16.6 µM: TGI [51]
inactive: GI50 [1] 1240 nM | GI50 [3] 7.85 µM | GI50 [4] 6.68 µM | GI50 [7] 13.4 µM | GI50 [8] 13.4 µM | GI50 [9] 17.4 µM | GI50 [10] 2400 nM | GI50 [11] 5.66 µM | GI50 [12] 10.5 µM | GI50 [13] 25.5 µM | GI50 [14] 599 nM | GI50 [15] 28.8 µM | GI50 [16] 627 nM | GI50 [17] 902 nM | GI50 [18] 6.45 µM | GI50 [20] 55.1 µM | GI50 [21] 23.5 µM | GI50 [22] 17 µM | GI50 [23] 20.4 µM | GI50 [24] 1130 nM | GI50 [25] 666 nM | GI50 [26] 49.1 µM | GI50 [27] 87 µM | GI50 [28] 1590 nM | GI50 [29] 1110 nM | GI50 [30] 67.6 µM | GI50 [31] 31.8 µM | GI50 [32] 8.36 µM | GI50 [33] 4.5 µM | GI50 [34] 23.7 µM | GI50 [35] > 100 µM | GI50 [36] 465 nM | GI50 [37] > 100000 nM | GI50 [38] 10.3 µM | GI50 [40] 16.6 µM | GI50 [42] 13.1 µM | GI50 [43] 611 nM | GI50 [44] 12 µM | GI50 [45] 1390 nM | GI50 [46] 11.3 µM | GI50 [47] 3.48 µM | GI50 [49] 68.6 µM | GI50 [50] 762 nM | GI50 [52] 61.4 µM | GI50 [53] 591 nM | GI50 [54] 3.57 µM | GI50 [55] 39.2 µM | GI50 [56] 17.2 µM | GI50 [57] 981 nM | GI50 [58] 6.38 µM
57.9 µM: TGI [7]
active: GI50 [2] 44.7 nM | GI50 [5] 341 nM | GI50 [6] 250 nM | GI50 [19] 392 nM | GI50 [39] 261 nM | GI50 [41] 182 nM | GI50 [48] 215 nM | GI50 [51] 385 nM
9.05 µM: TGI [53]
9.14 µM: TGI [14]
1.31 µM: TGI [2]
78 µM: TGI [32]
51.1 µM: TGI [40]
63.1 µM: TGI [24]
16 µM: TGI [43]
3.29 µM: TGI [19]
32.8 µM: TGI [17]
> 100000 nM: TGI [8] | TGI [23] | TGI [27] | TGI [34] | TGI [37] | TGI [46]
8.24 µM: TGI [41]
12.7 µM: TGI [28]
55.6 µM: TGI [11]
24.7 µM: TGI [57]
> 100 µM: TGI [1] | TGI [3] | TGI [4] | TGI [5] | TGI [6] | TGI [9] | TGI [10] | TGI [12] | TGI [13] | TGI [15] | TGI [16] | TGI [18] | TGI [20] | TGI [21] | TGI [22] | TGI [25] | TGI [26] | TGI [30] | TGI [31] | TGI [33] | TGI [35] | TGI [38] | TGI [39] | TGI [42] | TGI [44] | TGI [45] | TGI [47] | TGI [48] | TGI [49] | TGI [50] | TGI [52] | TGI [54] | TGI [55] | TGI [56] | TGI [58]
10.8 µM: TGI [29]
18 µM: TGI [36]

Cc1sc(C(=O)c2cncnc2N[C@@H]2C[C@H](COS(N)(=O)=O)[C@@H](O)C2)cc1[C@@H]1NCCc2ccc(Cl)cc21
20.5 µM: TGI [1]
> 100 µM: TGI [35]
75.6 nM: TGI [8]
17.5 µM: TGI [38]
18.7 µM: TGI [2]
0.0233 µM: TGI [14]
16.3 µM: TGI [30]
17.4 µM: TGI [12]
239 nM: TGI [46]
27.7 µM: TGI [54]
22.6 µM: TGI [58]
12.3 nM: TGI [59]
inactive: GI50 [1] 453 nM | GI50 [2] 561 nM | GI50 [4] 12.5 µM | GI50 [13] 2.5 µM | GI50 [35] 32.7 µM | GI50 [54] 14.5 µM | GI50 [58] 10.6 µM
10.1 µM: TGI [16]
14.2 µM: TGI [13]
0.0148 µM: TGI [7]
13.1 µM: TGI [20]
18.3 nM: TGI [27]
17.7 µM: TGI [57]
17.2 µM: TGI [3]
0.0578 µM: TGI [41]
25.3 µM: TGI [4]
15.1 nM: TGI [34]
15.3 µM: TGI [25]
19.3 µM: TGI [15]
21.4 µM: TGI [48]
0.0186 µM: TGI [29]
214 nM: TGI [23]
19.2 µM: TGI [39]
0.0172 µM: TGI [28]
81 nM: TGI [37]
active: GI50 [3] 0.0744 µM | GI50 [7] < 0.01 µM | GI50 [8] 0.0132 µM | GI50 [12] 0.0282 µM | GI50 [14] 11.1 nM | GI50 [15] 0.321 µM | GI50 [16] 18.8 nM | GI50 [20] 0.0548 µM | GI50 [23] 0.0322 µM | GI50 [25] < 10 nM | GI50 [27] < 0.01 µM | GI50 [28] < 10 nM | GI50 [29] < 10 nM | GI50 [30] 0.16 µM | GI50 [34] < 0.01 µM | GI50 [37] 29 nM | GI50 [38] 0.186 µM | GI50 [39] 35.2 nM | GI50 [40] < 0.01 µM | GI50 [41] 10.4 nM | GI50 [59] < 10 nM | GI50 [46] 0.0565 µM | GI50 [48] 133 nM | GI50 [51] < 10 nM | GI50 [57] 19.8 nM
